# Test results: US20210238169A1, “PROCESS FOR PREPARING A COMPOUND OF FORMULA (XIII)” (PULMOCIDE LIMITED, priority 2014, published 2021)
# Where two headings read alike, the source gives them in different places.
# Tests used:
# [1] = system: Aspergillus fumigatus isolates; test: Broth microdilution assay of planktonic fungal growth (modified EUCAST); assay type: cell-based; settings: read-out: MIC75
# Experimental: This assay was conducted using a modified method published by EUCAST (Rodriguez-Tudela et al., 2008). Spores of Aspergillus fumigatus (NCPF2010, NCPF7010 (Methionine 220 mutation), NCPF7099 (Glycine G54 mutation) from Public Health England, Wiltshire; TR34/L98H mutants from St Louis Hospital, Paris, France) were cultured in Sabouraud dextrose agar for 3 days. A stock spore suspension was prepared from a Sabouraud dextrose agar culture by washing with PBS-tween (10 mL; PBS containing 0.05% Tween-20, 100 U/mL Penicillin and 100 U/mL Streptomycin). The spore count was assessed using a Neubauer haemocytometer and then adjusted to 10^6 spores/mL with PBS. A working suspension of spores (2×10^5 spores/mL) was prepared in filter sterilised, BSA MOPS RPMI-1640 (50 mL; RPMI-1640 containing 2 mM L-glutamine, 0.5% BSA, 2% glucose, 0.165 M MOPS, buffered to pH 7 with NaOH). For the assay, BSA MOPS RPMI-1640 (50 μL/well) was added throughout the 384-well plate (Catalogue number 353962, BD Falcon, Oxford, UK) first. Test compounds (0.5 μL DMSO solution) were then added in quadruplicate using an Integra VIAFLO 96 (Integra, Zizers, Switzerland), and mixed well using a plate mixer. Subsequently 50 μL of the working spore suspension prepared above was added to all wells except non-spore control wells. For non-spore control wells, BSA MOPS-RPMI solution (50 μL/well) was added instead. The plate was covered with a plastic lid, and incubated (35° C. with ambient air) for 48 hr. The OD of each well at 530 nm was determined using a multi-scanner (Clariostar: BMG, Buckinghamshire, UK). The percentage inhibition for each well was calculated and the MIC50, MIC75 and MIC90 values were calculated from the concentration-response curve generated for each test compound.
# BEAS2B cells = test: Cell viability: resazurin assay; assay type: cell-based, human; settings: n = 1-5
# Experimental: (§1) BEAS2B cells were seeded in 384-well plates (100 μL; 3000/well/; BD Falcon, Catalogue No 353962) in RPMI-LHC8 (RPMI-1640 and LHC8 media combined in equal proportions) one day before experimentation. For cell-free control wells, RPMI-LHC8 (100 μL) was added. Test compounds (0.5 μL of a DMSO solution) were added to give a final DMSO concentration of 0.5% using an Integra VIAFLO 96 (Integra, Zizers, Switzerland). BEAS2B cells were incubated with each test compound for 1 day (37° C./5% CO2 in RPMI-LHC8). After addition of resazurin stock solution (5 μL, 0.04%) the plates were incubated for a further 4 hr (37° C./5% CO2). The fluorescence of each well at 545 nm (excitation) and 590 nm (emission) was determined using a multi-scanner (Clariostar: BMG Labtech). The percentage loss of cell viability was calculated for each well relative to vehicle (0.5% DMSO) treatment. Where appropriate, a CC50 value was calculated from the concentration-response curve generated from the concentration-response curve for each test compound.
# [2] = system: Aspergillus fumigatus isolates; test: Broth microdilution assay of planktonic fungal growth (modified EUCAST); assay type: cell-based; settings: isolate NCPF7100, broth microdilution, read-out: MIC75
# [3] = system: Aspergillus fumigatus (NCPF2010); test: Resazurin-microtitre assay of planktonic fungal growth; assay type: cell-based
# Experimental: This assay was conducted using a modified, published method (Monteiro et al., 2012). Spores of Aspergillus fumigatus (NCPF2010, Public Health England, Wiltshire) were cultured in Sabouraud dextrose agar for 3 days. A stock spore suspension was prepared from a Sabouraud dextrose agar culture by washing with PBS-tween (10 mL; PBS containing 0.05% Tween-20, 100 U/mL Penicillin and 100 U/mL Streptomycin). The spore count was assessed using a Neubauer haemocytometer and, using PBS, adjusted to 10^6 spores/mL. A working suspension of spores (10^4 spores/mL) was prepared in filter sterilised MOPS RPMI-1640 (50 mL; RPMI-1640 containing 2 mM L-glutamine, 2% glucose and 0.165 M MOPS, buffered to pH 7 with NaOH). Resazurin sodium salt (100 μL of 1% solution; Sigma-Aldrich, Dorset, UK) was added to the spore suspension and mixed well. The spore suspension-resazurin mixture (100 μL/well) was added to 384-well plates (Catalogue number 353962, BD Falcon, Oxford, UK). Simultaneously, test compounds (0.5 μL DMSO solution) were added to 100 μL of the spore-resazurin mixture in quadruplicate to provide a final DMSO solution of 0.5% using an Integra VIAFLO 96 (Intergra, Zizers, Switzerland). For non-spore control wells, MOPS-RPMI-resazurin solution (100 μL) was added instead of the spore-resazurin mixture. The plate was covered with a Breathe Easier membrane (Catalogue No Z763624, Sigma-Aldrich, Dorset, UK), and incubated (35° C., 5% CO2) until fluorescence in the inoculated wells was double that of the control wells (around 24 hr). The fluorescence of each well (545 nm (excitation)/590 nm (emission), gain 800, focal height 5.5 mm) was determined using a multi-scanner (Clariostar: BMG, Buckinghamshire, UK). The percentage inhibition for each well was calculated and the MIC50, MIC75 and MIC90 values were calculated from the concentration-response curve generated for each test compound.
# [4] = Cell viability: resazurin assay; assay type: cell-based, human; settings: human, BEAS2B cells; n = 1-5
# Experimental: as §1
# Aspergillus fumigatus = Aspergillus fumigatus infection of BEAS2B bronchial epithelial cells (GM in supernatant); assay type: cell-based
# Experimental: BEAS2B cells were seeded in 96-well plates (100 μL; 30,000 cells/well; Catalogue No 3596, Sigma Aldrich, Dorset, UK) in 10% FBS RPMI-1640 and were then incubated (37° C., 5% CO2) for one day before experimentation. Test compounds (0.5 μL DMSO solution) or vehicle (DMSO) were added to each well to give a final DMSO concentration of 0.5%. BEAS2B cells were incubated with test compounds for 1 hr (35° C., 5% CO2) before infection with Aspergillus fumigatus (20 μL; Public Health England) conidia suspension (0.5×10^5/ml in 10% FBS RPMI-1640). The plate was incubated for 24 hr (35° C., 5% CO2). Supernatant (50 μL) was collected and transferred to a PCR plate (Catalogue No L1402-9700, Starlab, Milton Keynes, UK), which was frozen (−20° C.) until use. After thawing, supernatant (5 μL) was diluted 1:20 by adding R7-PBS solution (95 μL; 1:4 R7 to PBS; Bio-Rad Laboratories, Redmond, Wash., USA). GM levels in these samples (50 μL) were measured using Platelia GM-EIA kits (Bio-Rad Laboratories, Redmond, Wash., USA). The percentage inhibition for each well was calculated and the IC50 value was calculated from the concentration-response curve generated for each test compound.
Structure (SMILES),"MIC ([1]; isolate L98H, broth microdilution)","MIC ([1]; isolate NCPF2010, broth microdilution)","MIC ([1]; isolate NCPF7099, broth microdilution)",CC50 (BEAS2B cells),MIC [2],Planktonic fungal growth MIC50 [3],Planktonic fungal growth MIC75 [3],MIC ([1]; Aspergillus fumigatus),"MIC ([1]; Aspergillus fumigatus, isolate NCPF2010, broth microdilution)","MIC ([1]; Aspergillus fumigatus, isolate NCPF7099, broth microdilution)",CC50 at 1 day [4],MIC ([2]; Aspergillus fumigatus),MIC50 (Aspergillus fumigatus)
C[C@@H]1[C@H](O)[C@@H](C)/C=C/C=C/C=C/C=C/C=C/C=C/C=C/[C@H](O[C@@H]2O[C@H](C)[C@@H](O)[C@H](N)[C@@H]2O)C[C@@H]2O[C@](O)(C[C@@H](O)C[C@@H](O)[C@H](O)CC[C@@H](O)C[C@@H](O)CC(=O)O[C@H]1C)C[C@H](O)[C@H]2C(=O)O [Amphotericin B],0.209 µM,0.382 µM,0.365 µM,977 nM,>1.08 µM,0.0285 µM,0.0644 µM,,,,,,
"[2H]c1c([2H])c(NC(=O)c2ccc(N3CCN(c4ccc(OC[C@@H]5CO[C@@](Cn6cncn6)(c6ccc(F)cc6F)C5)c(C)c4)CC3)cc2)c([2H])c([2H])c1F [Compound (I)•4[^2H], 4-(4-(4-(((3R,5R)-5-((1H-1,2,4-triazol-1-yl)methyl)-5-(2,4-difluorophenyl)tetrahydrofuran-3-yl)methoxy)-3-methylphenyl)piperazin-1-yl)-N-(4-fluorophenyl-2,3,5,6-d4)benzamide]",,,,,,,,0.07 µM,0.0147 µM,0.0137 µM,> 14600 nM,0.0286 µM,0.00315 µM
